Data reported in patent US9114177B2, “Block copolymer having phenylboronic acid group introduced therein, and use thereof” (THE UNIVERSITY OF TOKYO, priority 2011, dated 2015).

Tests used:
[1] = cited from earlier work
[2] = siRNA diffusion time of block copolymer/siRNA complexes in serum solution (complex stability); type: physicochemical; conditions: siRNA not mixed with block copolymer, 50 nM, serum solution (10% FBS)
Method: A variety of block copolymers having different amino acid polymerization degrees and FPBA group contents were prepared as mentioned in Sections (1-i) to (1-iii) and (2-i) to (2-iii). It should be noted that PEG having a molecular weight (Mw) of 12,000 was used as methoxy-PEG-NH2. The block copolymers were mixed with siRNA fluorescently labeled with Cy3 so as to achieve an N/P ratio of 8. The resultant mixtures were left to stand still in a refrigerator for 1 to 2 hours and diluted with a serum solution (150 mM NaCl, 10 mM Hepes, 10% FBS) so as to achieve an siRNA concentration of 50 nM. The resultant diluted solutions were left to stand still at room temperature for about 1 hour, and the siRNA diffusion time was measured with a confocal laser scanning microscope (manufactured by Carl Zeiss, product name “LSM510”) (10 sec×10 times). It should be noted that, when the measurement was carried out in the same manner as above except that siRNA was not mixed with the block copolymer, the diffusion time (diffusion time of siRNA alone) was 157.5 μsec. It should be noted that GL3-siRNA was used as the siRNA.

[3] = Blood retention properties of complex; type: in vivo; conditions: mice, tail vein, 20 μg siRNA
Method: The block copolymer (PEG-PLL 12-23/43) and Cy5-GL3-siRNA were added to a 10 mM HEPES buffer (pH 7.3) so as to achieve an N/P ratio of 8 and an siRNA concentration of 7.5 μM, and the resultant was mixed and left to stand still for about 1 to 2 hours at room temperature to prepare a complex solution. The complex solution or a solution of the siRNA (10 mM HEPES buffer) was administered to the tail veins of mice (female Balb/C nude, 6-week-old, N=4) so that the dose was 20 μg of the siRNA, and the amount of the siRNA remaining in blood was determined over time.

Row | Compound | pKa [1] | diffusion time of siRNA alone [2] [μsec] | siRNA remaining in blood at 10 minutes after administration [3] | siRNA remaining in blood at 1 hour after administration [3]
1 | OB(O)c1ccccc1 [phenylboronic acid] | 8 to 9 | – | – | –
2 | GL3-siRNA: siRNA for firefly luciferase, SEQ ID NO: 5 and 6, fluorescently labelled (Cy3 or Cy5), tested alone (chain 1 CUUACGCUGACUACUUCGAUU; chain 2 UCGAAGUACUCAGCGUAAGUU; sense strand 5' end labeled with Cy3 (or Cy5), further chemistry not given here) | – | 157.5 | about 10% | almost no siRNA remained
